Earlier results in patent publication US20040109886A1 (priority 2002, published 2004).

What was measured:
[1] = base

In the case of O=C(CCCN1CC=C(n2c(=O)[nH]c3ccccc32)CC1)c1ccc(F)cc1 [droperidol], the pKa [1] is given as 7.64, the “solubility in acidic water” value (acidic water) is given as “soluble” and the solubility in alcohol (alcohol) is given as “high solubility”.
